{"source": "patent US20070225253A1", "about": "“Use of a trioxopyrimidine for the treatment and prevention of bronchial inflammatory diseases” (priority 2004, published 2007)", "tested_on": "allergen-induced airway inflammation", "assay": "Mouse model of asthma (OVA), intraperitoneal injection of Compound I", "type": "in vivo, mice", "details": "3.75 to 30 mg/kg", "experimental": "In order to study the modulation of airway inflammation by intraperitoneal injection of Compound I, mice were sensitized with 10 μg ovalbumin alumin-adsorbed (aluminject, perbio, Erembodegem, Belgium) injected intraperitonealy at days 0 and 7 and were subsequently exposed to OVA 1% or PBS aerosols for 30 minutes from day 21 to 24. Intraperitoneal injections were performed 30 min before OVA inhalations. The different injected formulations were: cremophor 10%-DMSO 10%-PBS 80%- Compound I30 mg/kg (suspension); cremophor 10%-DMSO 10%-PBS 80%- Compound I3.75 mg/kg (solution); HPβCD 200 mM Compound I 7.5 mg/kg (solution); HPβCD 200 mM. […]\nTwenty-four hours after the last allergen exposure, the bronchial hyper responsiveness was determined by measuring the Penh using a barometric plethysmograph as proposed by Hamelmann, E., et al., Am. […] The Penh was measured at baseline and 5 min after the inhalation of increasing doses (25, 50, 75 and 100 mM) of methacholine (Mch).\nImmediately after the assessment of airway responsiveness, mice were sacrificed and 1 ml of PBS free of ionised calcium and magnesium but supplemented with 0.05 mM sodium EDTA was instilled 4 times via a tracheal cannula and recovered by gentle manual aspiration. […] A value from 0 to 3 per criteria was adjudged to each tissue section scored. […]", "data": [{"smiles": "O=C1NC(=O)C(c2ccc(-c3ccccc3)cc2)(N2CCN(c3ccc([N+](=O)[O-])cc3)CC2)C(=O)N1", "note": "[Compound I, 5-Biphenyl-4-yl-5-[4-(4-nitro-phenyl)-piperazin-1-yl]pyrimidine-2,4,6-trione]", "values": [{"measurement": "peribronchial inflammation scores", "setting": "equal efficacy of all tested formulations", "result": "significantly lowered"}, {"measurement": "allergen-induced airway eosinophilic inflammation in BAL", "setting": "solution or precipitate, vs placebo", "result": "lowered"}]}]}
